These results are taken from ChEMBL document CHEMBL1131662, “Synthesis and structure-activity relationship of potent bicyclic lactam thrombin inhibitors” (Bioorg Med Chem Lett, 1999).

A word on the Ki: it is the dissociation constant of the complex between target and ligand, obtained from inhibition or displacement. A lower Ki goes with a stronger hold on the target.

Assay [1] addresses T1, Prothrombin (Homo sapiens, UniProt P00734). The assay can be described thus: In vitro inhibitory activity against human thrombin.
For assay [2], the target named is T1, Prothrombin. The assay can be described thus: In vitro inhibitory activity against human thrombin.(Slow moving component on HPLC).
For assay [3], the target named is T1, Prothrombin. Briefly: In vitro inhibitory activity against human thrombin.( Fast moving component on HPLC).

In turn, `C[C@]12CC[C@@H](c3ccc4nc(C(F)(F)F)ccc4c3)C(=O)N1[C@H](C(=O)NC(CCCN=C(N)N)C(=O)c1nccs1)CS2` (stereo not given in full) had an inhibitory constant (Ki) at Prothrombin [1] of 10 nM.
`C[C@]12CC[C@H](CCCc3ccccc3)C(=O)N1[C@H](C(=O)NC(CCCN=C(N)N)C(=O)c1nccs1)CS2` (stereo not given in full): at Prothrombin [1], the Ki was 100 nM.
Regarding `C[C@]12CC[C@@H](CCc3ccccc3)C(=O)N1[C@H](C(=O)NC(CCCN=C(N)N)C(=O)c1nc3ccccc3s1)CS2` (stereo not given in full), at Prothrombin [1], the inhibition constant Ki is 235 nM.
The molecule `C[C@]12CC[C@@H](c3ccc4nc(C(F)(F)F)ccc4c3)C(=O)N1[C@H](C(=O)NC(CCCN=C(N)N)C(=O)c1nc3ccccc3s1)CS2` (stereo not given in full) had a Ki at Prothrombin [1] of 18 nM.
Consider `C[C@]12CC[C@@H](CCCc3ccccc3)C(=O)N1[C@H](C(=O)NC(CCCN=C(N)N)C(=O)c1nccs1)CS2` (stereo not given in full), for which the inhibition constant Ki on Prothrombin [2] came out at 6 nM; on Prothrombin [3] it was 2 nM.
Regarding `C[C@]12CC[C@H](c3ccc4nc(C(F)(F)F)ccc4c3)C(=O)N1[C@H](C(=O)NC(CCCN=C(N)N)C(=O)c1nccs1)CS2` (stereo not given in full), the inhibition constant Ki at Prothrombin [1] stood at 150 nM.
As for `C[C@]12CC[C@H](CCc3ccccc3)C(=O)N1[C@H](C(=O)NC(CCCN=C(N)N)C(=O)c1nc3ccccc3s1)CS2` (stereo not given in full), the affinity at Prothrombin [1], expressed as Ki, was 550 nM.
Same read-out and setting: in the case of `C[C@]12CC[C@@H](Cc3ccccc3)C(=O)N1[C@H](C(=O)NC(CCCN=C(N)N)C(=O)c1nc3ccccc3s1)CS2` (stereo not given in full) it was 18 nM; in that of `NC(N)=NCCCC(NC(=O)[C@@H]1CS[C@H]2CC[C@H](Cc3ccccc3)C(=O)N21)C(=O)c1nc2ccccc2s1` (stereo not given in full), 1110 nM.
